Experimental findings from ChEMBL document CHEMBL5252579, “Discovery of fluorinated 2‑Styryl 4(3H)-quinazolinone as potential therapeutic hit for oral cancer” (Bioorg Med Chem, 2023) are described below.

The subject of data set [1] is CAL-27. Nature of the data set: Cytotoxicity against human CAL-27 cells assessed as reduction in cell viability incubated for 24 hrs by alamar blue assay. The format is functional, cell-based. The settings on record: CAL-27, 24 h. Background: The colour change of resazurin is a common sign of viable cells or microbes.
Data set [2] can be described thus: Cytotoxicity against human normal oral epithelial cell assessed as reduction in cell viability incubated for 24 hrs by alamar blue assay. It is filed as toxicity, cell-based. Particulars: normal oral epithelial cells.
Data set [3] relates to CAL-27. Nature of the data set: Upregulation of TNF-alpha signaling NF-kappaB gene in human CAL-27 cells at IC50 concentration incubated for 24 hrs by RNA sequencing analysis. It is filed as functional, cell-based.
The subject of data set [4] is CAL-27. Description: Induction of cell cycle arrest in human CAL-27 cells assessed as accumulation at G1 phase at IC50 concentration incubated for 24 hrs by propidium iodide staining based flow cytometric analysis (reference value: 61.61 %). It is filed as functional. In general terms: In flow cytometry, cells or beads pass a laser one at a time.
In data set [5] the test system is CAL-27. Description: Downregulation of MYC gene in human CAL-27 cells at IC50 concentration incubated for 24 hrs by RNA sequencing analysis. It is filed as functional, cell-based.
Data set [6] concerns CAL-27. Description: Downregulation of G2M checkpoint gene in human CAL-27 cells at IC50 concentration incubated for 24 hrs by RNA sequencing analysis. The format is functional, cell-based.
The test system of data set [7] is CAL-27. Description: Downregulation of KRAS signaling gene in human CAL-27 cells at IC50 concentration incubated for 24 hrs by RNA sequencing analysis. The format is functional, cell-based.
The test system of data set [8] is CAL-27. Description: Downregulation of mitotic spindle in human CAL-27 cells at IC50 concentration incubated for 24 hrs by RNA sequencing analysis. The format is functional, cell-based.
Data set [9] relates to CAL-27. Description: Upregulation of apoptosis gene in human CAL-27 cells at IC50 concentration incubated for 24 hrs by RNA sequencing analysis. The format is functional, cell-based.
The subject of data set [10] is CAL-27. Nature of the data set: Upregulation of MTORC1 signaling gene in human CAL-27 cells at IC50 concentration incubated for 24 hrs by RNA sequencing analysis. It is filed as functional, cell-based.
Data set [11] deals with CAL-27. Description: Downregulation of estrogen response gene in human CAL-27 cells at IC50 concentration incubated for 24 hrs by RNA sequencing analysis. The format is functional, cell-based.
Data set [12] has as its system CAL-27. Description: Induction of cell cycle arrest in human CAL-27 cells assessed as accumulation at G2/M phase at IC50 concentration incubated for 24 hrs by propidium iodide staining based flow cytometric analysis (reference value: […]). The format is functional.
In data set [13] the test system is CAL-27. Nature of the data set: Cytotoxicity against human CAL-27 cells assessed as reduction in cell viability incubated for 48 hrs by alamar blue assay. The format is functional, cell-based. The settings on record: CAL-27, 48 h.
Data set [14] relates to CAL-27. Description: Upregulation of hypoxia related gene in human CAL-27 cells at IC50 concentration incubated for 24 hrs by RNA sequencing analysis. It is filed as functional, cell-based.
Data set [15] can be described thus: Induction of cell cycle arrest in human normal oral epithelial cell assessed as accumulation at G2/M phase at IC50 concentration incubated for 24 hrs by propidium iodide staining based flow cytometric analysis (reference value: 12.79 %). It is filed as toxicity.
Data set [16] deals with CAL-27. Nature of the data set: Downregulation of MTORC1 signaling gene in human CAL-27 cells at IC50 concentration incubated for 24 hrs by RNA sequencing analysis. It is filed as functional, cell-based.
The test system of data set [17] is CAL-27. Nature of the data set: Upregulation of KRAS signaling gene in human CAL-27 cells at IC50 concentration incubated for 24 hrs by RNA sequencing analysis. The format is functional, cell-based.
The subject of data set [18] is CAL-27. Description: Cytotoxicity against human CAL-27 cells assessed as reduction in cell viability incubated for 72 hrs by alamar blue assay. The format is functional, cell-based. Particulars: CAL-27, 72 h.
The subject of data set [19] is CAL-27. Description: Antimigratory activity against human CAL-27 cells assessed as reduction in number of colonies at 14 uM replaced with fresh medium for every 2 days for 10 days by crystal violet staining based inverted microscopic analysis (reference value: 234). The settings on record: time 10 day. The format is functional.
Data set [20] concerns CAL-27. Description: Upregulation of epithelial mesenchymal gene in human CAL-27 cells at IC50 concentration incubated for 24 hrs by RNA sequencing analysis. The format is functional, cell-based.
Data set [21] has as its system CAL-27. Nature of the data set: Downregulation of interferon gamma gene in human CAL-27 cells at IC50 concentration incubated for 24 hrs by RNA sequencing analysis. The format is functional, cell-based.
Data set [22] can be described thus: Induction of cell cycle arrest in human normal oral epithelial cell assessed as accumulation at G1 phase at IC50 concentration incubated for 24 hrs by propidium iodide staining based flow cytometric analysis (reference value: 55.49 %). The format is toxicity.
The test system of data set [23] is CAL-27. Nature of the data set: Induction of cell cycle arrest in human CAL-27 cells assessed as decrease in cells at S phase at IC50 concentration incubated for 24 hrs by propidium iodide staining based flow cytometric analysis (reference value: 23.97 %). It is filed as functional. Details: scale not given: the % may be the effect or the level left.
Data set [24] concerns CAL-27. Description: Antimigratory activity against human CAL-27 cells assessed as reduction in gap closure at 14 uM after 24 hrs by scratch wound healing assay (reference value: 65.2%). The format is functional. More on the design: scale not given: the % may be the effect or the level left.
Data set [25] concerns CAL-27. Description: Upregulation of p53 pathway in human CAL-27 cells at IC50 concentration incubated for 24 hrs by RNA sequencing analysis. It is filed as functional, cell-based.
Data set [26] has as its system CAL-27. Description: Downregulation of E2F gene in human CAL-27 cells at IC50 concentration incubated for 24 hrs by RNA sequencing analysis. It is filed as functional, cell-based.
Data set [27] relates to CAL-27. Description: Upregulation of myogenesis gene in human CAL-27 cells at IC50 concentration incubated for 24 hrs by RNA sequencing analysis. The format is functional, cell-based.
Data set [28] relates to CAL-27. Nature of the data set: Upregulation of glycolysis gene in human CAL-27 cells at IC50 concentration incubated for 24 hrs by RNA sequencing analysis. The format is functional, cell-based.
The test system of data set [29] is CAL-27. Description: Upregulation of IL2 STAT5 signaling gene in human CAL-27 cells at IC50 concentration incubated for 24 hrs by RNA sequencing analysis. It is filed as functional, cell-based.
Data set [30] in a line: Induction of cell cycle arrest in human normal oral epithelial cell assessed as reduction in cells at S phase at IC50 concentration incubated for 24 hrs by propidium iodide staining based flow cytometric analysis (reference value: 31.85 %). It is filed as toxicity. Details: scale not given: the % may be the effect or the level left.
For data set [31], the system named is CAL-27. Nature of the data set: Antimigratory activity against human CAL-27 cells at 14 uM after 24 hrs by scratch wound healing assay. It is filed as functional.

Activity calls are given as the source filed them. The calls are words filed in the database; no cut-off is given here.

For the compound `O=c1[nH]c(/C=C/c2ccc([N+](=O)[O-])cc2)nc2ccccc12`, the IC50 in the data set on CAL-27 [1] came to 16 µM. The IC50 at 24 h in data set [2] was 12 µM.

In the case of `C/C(=C\c1ccccc1)c1nc2ccccc2c(=O)[nH]1`, the half-inhibitory concentration (IC50) in the data set with CAL-27 [1] was determined as 8.6 µM. For the same compound, the IC50 at 24 h in [2] was determined as 15 µM.

Turning to `COc1ccc(/C=C/c2nc3ccccc3c(=O)[nH]2)cc1`, in the data set with CAL-27 [1], the IC50 was 14 µM. Further, the IC50 at 24 h in data set [2] worked out at 13 µM.

As for `N#Cc1ccc(/C=C/c2nc3ccccc3c(=O)[nH]2)cc1`, the half-inhibitory concentration (IC50) in the data set with CAL-27 [1] amounted to 17 µM. Besides, the IC50 at 24 h in [2] was 25 µM.

Regarding `O=c1[nH]c(/C=C/c2ccc(Cl)cc2)nc2ccccc12`, the IC50 in the data set on CAL-27 [1] worked out at 15.6 µM. In addition, the IC50 at 24 h in [2] is 17 µM.

In the case of `O=c1[nH]c(/C=C/c2cccc(F)c2)nc2ccccc12`, the IC50 with CAL-27 [1] was 16 µM. In addition, in data set [2], the IC50 at 24 h came out at 26 µM.

On to `O=c1[nH]c(/C=C/c2c(F)c(F)c(F)c(F)c2F)nc2ccccc12`, for which the IC50 in the data set with CAL-27 [1] amounted to 13.6 µM. The half-inhibitory concentration (IC50) at 24 h in data set [2] is 17 µM.

As for `O=c1[nH]c(/C=C/c2ccc(F)cc2)nc2ccccc12`, the result in the data set with CAL-27 [3], in the data set on CAL-27 [5], with CAL-27 [6], in the data set with CAL-27 [7], with CAL-27 [8] and in the data set on CAL-27 [9] was Active. In addition, the result with CAL-27 [10], in the data set with CAL-27 [11], in the data set on CAL-27 [14], with CAL-27 [16], with CAL-27 [17] and in the data set with CAL-27 [20] was Active. Also, the outcome in the data set on CAL-27 [21], with CAL-27 [25], in the data set on CAL-27 [26], in the data set on CAL-27 [27], in the data set on CAL-27 [28] and in the data set on CAL-27 [29] was Active. The Activity in the data set on CAL-27 [4] came to 76.12%; with CAL-27 [12], 14.24%; in data set [15], 13.79%; with CAL-27 [19] it was 158; in [22], 55.99%; in the data set with CAL-27 [23] it was 9.76%. Besides, the Activity in the data set with CAL-27 [24] is reported as 36%; in [30] it was 30.19%; in the data set on CAL-27 [31] it was 64%. Moreover, the IC50 amounted to 12.9 µM with CAL-27 [1], 10 µM in the data set with CAL-27 [13] and 8 µM in the data set with CAL-27 [18]. Further, in data set [2], the IC50 at 24 h is 41.4 µM.

As to `CN(C)c1ccc(/C=C/c2nc(O)c3ccccc3n2)cc1`, in the data set on CAL-27 [1], the 50% inhibitory concentration (IC50) was determined as 13.6 µM. Besides, in data set [2], the IC50 at 24 h stood at 31 µM.

As for `O=c1[nH]c(/C=C/c2cccs2)nc2ccccc12`, the IC50 in the data set on CAL-27 [1] worked out at 11.3 µM. In addition, the IC50 at 24 h in data set [2] turned out to be 16.2 µM.

As for `Cc1ccc(/C=C/c2nc(O)c3ccccc3n2)cc1`, in the data set with CAL-27 [1], the IC50 came to 14.6 µM. Further, the IC50 at 24 h in [2] worked out at 14 µM.

As a reminder, the IC50 is the point on the concentration scale where inhibition reaches its midpoint.
